# Source: ChEMBL document CHEMBL1201862, “PubChem BioAssay data set” (2004)
#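 Following 48 hours of exposure in 96-well plates, responses at five concentrations were used to interpolate endpoints linearly. Abbreviation: GI50, concentration required for 50% inhibition of growth.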 Activity calls are given as the source filed them. No stated cut-off is given here; in the data, active = GI50 up to about 1.1 µM and inactive = higher.
# Tests used:
# Assay in all cases: NCI tumour cell line growth inhibition, 48 h
# [1] = tested on: ACHN
# [2] = tested on: BT-549
# [3] = tested on: COLO 205
# [4] = tested on: EKVX
# [5] = tested on: HT-29
# [6] = tested on: LOX IMVI
# [7] = tested on: M14
# [8] = tested on: MDA-MB-231
# [9] = tested on: NCI-H226
# [10] = tested on: NCI-H23
# [11] = tested on: PC-3
# [12] = tested on: SF-268
# [13] = tested on: SK-MEL-5
# [14] = tested on: SK-OV-3
# [15] = tested on: SN12C
# [16] = tested on: SNB-19
# [17] = tested on: SNB-75
# [18] = tested on: TK-10
# [19] = tested on: KM12
# [20] = tested on: NCI-H522
SMILES,GI50 [1],GI50 [2],GI50 [3],GI50 [4],GI50 [5],GI50 [6],GI50 [7],GI50 [8],GI50 [9],GI50 [10],GI50 [11],GI50 [12],GI50 [13],GI50 [14],GI50 [15],GI50 [16],GI50 [17],GI50 [18],GI50 [19],GI50 [20]
Nn1nnc2ccccc21,> 100 µM (inactive),> 100 µM (inactive),> 100 µM (inactive),> 100 µM (inactive),> 100 µM (inactive),> 100 µM (inactive),> 100 µM (inactive),> 100 µM (inactive),> 100 µM (inactive),> 100 µM (inactive),> 100 µM (inactive),> 100 µM (inactive),> 100 µM (inactive),> 100 µM (inactive),> 100 µM (inactive),> 100 µM (inactive),> 100 µM (inactive),> 100 µM (inactive),,
Cc1nc2ccccc2c(=O)n1-c1n[nH]c2ccccc12,> 100 µM (inactive),> 100 µM (inactive),> 100 µM (inactive),> 100 µM (inactive),> 100 µM (inactive),> 100 µM (inactive),> 100 µM (inactive),> 100 µM (inactive),80.5 µM (inactive),> 100 µM (inactive),> 100 µM (inactive),> 100 µM (inactive),> 100 µM (inactive),,> 100 µM (inactive),> 100 µM (inactive),> 100 µM (inactive),> 100 µM (inactive),> 100 µM (inactive),> 100 µM (inactive)
COc1ccc(NC(C)=O)cc1N1C(=O)/C(=C\c2cccc(Oc3ccccc3)c2)SC1c1ccccc1 (stereo unspecified),31.3 µM (inactive),30.5 µM (inactive),19.4 µM (inactive),33.3 µM (inactive),18.3 µM (inactive),13.4 µM (inactive),34.1 µM (inactive),37.8 µM (inactive),82.2 µM (inactive),46 µM (inactive),21.7 µM (inactive),,30.5 µM (inactive),49 µM (inactive),20.4 µM (inactive),69.3 µM (inactive),38.6 µM (inactive),49.3 µM (inactive),37.6 µM (inactive),28.4 µM (inactive)
CC1CN(C)c2ccccc2N=C1NN (stereo unspecified),> 100 µM (inactive),> 100 µM (inactive),> 100 µM (inactive),> 100 µM (inactive),> 100 µM (inactive),,> 100 µM (inactive),> 100 µM (inactive),> 100 µM (inactive),> 100 µM (inactive),> 100 µM (inactive),> 100 µM (inactive),> 100 µM (inactive),> 100 µM (inactive),> 100 µM (inactive),> 100 µM (inactive),,> 100 µM (inactive),> 100 µM (inactive),> 100 µM (inactive)
CCC1CCC2c3c([nH]c4ccc(C)cc34)C3C(=O)N(N(C)C)C(=O)C3C2C1 (stereo unspecified),91.2 µM (inactive),39.1 µM (inactive),4.36 µM (inactive),26.7 µM (inactive),7.28 µM (inactive),13.7 µM (inactive),14.5 µM (inactive),72.8 µM (inactive),> 72.4 µM (inactive),> 67.3 µM (inactive),6.22 µM (inactive),7.62 µM (inactive),12.8 µM (inactive),> 100 µM (inactive),17.9 µM (inactive),16.9 µM (inactive),,32.4 µM (inactive),6.52 µM (inactive),0.748 µM (active)
COC(=O)Nc1nc(=O)c2ccccc2[nH]1,> 100 µM (inactive),> 100 µM (inactive),> 100 µM (inactive),> 100 µM (inactive),> 100 µM (inactive),,> 100 µM (inactive),> 100 µM (inactive),> 100 µM (inactive),> 100 µM (inactive),> 100 µM (inactive),> 100 µM (inactive),55 µM (inactive),65.3 µM (inactive),> 100 µM (inactive),> 100 µM (inactive),28 µM (inactive),> 100 µM (inactive),90.4 µM (inactive),50.1 µM (inactive)
Brc1ccc(/N=N/c2ccc3ccccc3n2)cc1,13.5 µM (inactive),14.5 µM (inactive),> 100 µM (inactive),17.6 µM (inactive),47.4 µM (inactive),,> 100 µM (inactive),> 10 µM (inactive),10.6 µM (inactive),27.8 µM (inactive),22 µM (inactive),22.3 µM (inactive),20.7 µM (inactive),22.9 µM (inactive),40.4 µM (inactive),15.9 µM (inactive),14.2 µM (inactive),28 µM (inactive),62.2 µM (inactive),0.0372 µM (active)
